Assay results from patent publication EP0065295A1, “Tryptamine derivatives of thienyloxypropanol amines, process for their preparation, pharmaceutical compositions containing them and preparation of the latter” (HOECHST AKTIENGESELLSCHAFT, priority 1981, dated 1982).

Assays:
[1] = Acute toxicity, LD50 rat i.v.; settings: in vivo, iv, read-out: Akute Toxizität LD50 Ratte i.v.
Text: (§1) Die antihypertensive Wirksamkeit der erfindungsgemäßen Verbindungen kann in verschiedenen pharmakolgischen Tests nachgewiesen werden.

wachen Hund = assay: Blood pressure lowering in the conscious dog; type: in vivo; settings: wacher Hund; compared with Bucindolol
Text: as §1

[2] = Acute toxicity, LD50 mouse i.v.; settings: in vivo, iv, read-out: Akute Toxizität LD50 Maus i.v.
Text: as §1

narkotisierten Hund = assay: Blood pressure lowering in the anaesthetised dog; type: in vivo; settings: narkotisierter Hund; compared with Bucindolol
Text: as §1

SMILES | LD50 [1] [mg/kg] | blutdrucksenkend (wachen Hund) | LD50 [2] [mg/kg] | blutdrucksenkend (narkotisierten Hund) | LD50 ([1]; Ratte, i.v.) [mg/kg] | LD50 ([2]; Maus, i.v.) [mg/kg]
CC(C)(Cc1c[nH]c2ccccc12)NCC(O)COc1ccsc1C(N)=O (racemic) [Beispiel 2, 3-<3-[1,1-Dimethyl-2-(indol-3-yl)äthylamino]-2-hydroxy-- propoxy>-thiophen-2-carbonsäureamid] | 86 | ähnlich stark und anhaltend blutdrucksenkend wie das bekannte Bucindolol | 74 | ähnlich stark und anhaltend blutdrucksenkend wie das bekannte Bucindolol | – | –
CC(C)(Cc1c[nH]c2ccccc12)NCC(O)COc1ccccc1C#N (stereo not drawn) [Bucindolol, 2-<2-Hydroxy-3-<[2-(3-indolyl)-1,1-dimethyläthyl] amino>-propoxy>benzonitril, reference compound] | – | – | – | – | 20.2 | 9.6
